Assay results published in paper PMC4565635, “6-Shogaol Inhibits Breast Cancer Cells and Stem Cell-Like Spheroids by Modulation of Notch Signaling Pathway and Induction of Autophagic Cell Death” (PLoS ONE, 2015).

Tests used:
[1] = tested on: breast cancer spheroids (CD44+CD24-/low cells); assay: Flow cytometric analysis of cell surface markers CD44/CD24; format: cell-based, human; conditions: 40 μM, 18 hours; untreated 27.3%
Procedure: Monolayer cells or spheroids (with or without treatment of 6-shogaol) were dispersed by trypsin-EDTA. Cells were then pelleted down by centrifugation at 1600 rpm for 5 minutes at 4°C and resuspended in 1 ml of DMEM containing 2% FBS. Fluorescein isothiocyanate (FITC)-conjugated CD24 monoclonal antibody and phycoerythrin (PE)-conjugated CD44 monoclonal antibody (BD Biosciences) were added in 1:100 dilution and incubated on ice for 45 minutes in dark. The cells were then analyzed by flow cytometer (BD FACS Aria II) for the expression of CD24 and CD44.

HEK 293 cells = assay: MTT cytotoxicity assay, noncancerous cells; format: cell-based, human
Procedure: (§1) Monolayer cells (5×10^3cells/well) were seeded in quadruplicates in 96 well plates and were incubated with varying concentrations of 6-shogaol (1–100 μM), taxol (0.2–100 nM) or curcumin (4–80 μM). The effect of the drugs on the viability of all the cell lines was quantified by MTT (3-[4,5-dimethylthiazol-2-yl]-2,5 diphenyltetrazolium bromide) assay at different time points after drug treatment using a Biorad Plate reader. The IC50 values were calculated from the plot of percentage cell viability versus concentration of drug using the nonlinear regression programme of Origin.

HaCaT cells = assay: MTT cytotoxicity assay, noncancerous cells; format: cell-based, human; conditions: 48 hours
Procedure: as §1

LC3-II in MCF7 cells = assay: Western blot of LC3-II expression; format: cell-based, human; conditions: 48 hours
Procedure: Lysates were placed into ice for 1 hour to ensure complete lysis followed by centrifugation at 14,000 g for 10 minutes and the supernatant was collected. Proteins were subjected to SDS-PAGE and transferred to polyvinylidene fluoride membrane. The membranes were blocked and incubated overnight with primary antibodies at 4°C followed by incubation with horseradish peroxidase tagged secondary antibodies. The blots were developed using ECL reagent. The primary antibodies were used in the following dilutions: Cleaved Notch1 (1:2000), Hes1 (1:200), Cyclin D1 (1:400), PARP (1:500 for sc) and (1:1000 for CST), LC3A/B (1:500), Bcl-2 (1:1000), Bax (1:1000) and β-actin (1:2000). β-actin was used as loading controls.
Densitometry was conducted for all the western blots using […] software (Bio-Rad). Normalisation was done according to the loading control and fold change was calculated with respect to the control. For graphs, results are depicted as mean ± standard error of mean or standard deviation (calculated from two or more experiments). The p-values were obtained using Student’s unpaired t-test and p < 0.05 was considered to be statistically significant.

MCF-7 spheroids [2] = assay: Secondary sphere formation; format: cell-based, human; conditions: for inhibition of secondary spheroid colonies: regrown 1 week without compound
Procedure: (§2) 5000 cells/well were seeded in ultra low attachment plates. After 3 days of seeding, the spheres formed were kept with different concentrations of 6-shogaol and/or 25 μM DAPT for 7 days and the number of spheres were counted under the microscope. These primary spheres were dispersed and kept in fresh media without any treatment and counted again after 7 days to check the ability to regrow into secondary spheres. Control primary spheres were also processed similarly for comparison. Spheres were counted in Olympus IX71 microscope using 10X objective.

MCF-7 cells [3] = assay: DAPI staining for apoptosis (chromatin condensation); format: cell-based, human; conditions: 25 μM
Procedure: Cells were seeded on cover slips. […] Cells were washed with PBS, fixed with Methanol-EDTA for 10 minutes at -20°C followed by rehydration with PBS at room temperature and incubated with 1 μg/ml DAPI. Mounted coverslips were visualised at 40X magnification under fluorescence microscope (Olympus IX71). Apoptotic cells were counted from five different fields.

[4] = tested on: MRC5, NP69, HaCaT and HMEC; set-up: method as in PMID 23612072; conditions: cited from earlier work
breast cancer spheroids = assay: Apoptosis detection in spheroids; format: cell-based, human; conditions: 40 μM, upto 72 or 96 hours
MCF-7 spheroids [5] = assay: Primary sphere formation; format: cell-based, human
Procedure: as §2

MCF-7 monolayer cells = assay: MTT cytotoxicity assay, monolayer; format: cell-based, human; conditions: drug added one day after seeding
Procedure: as §1

[6] = tested on: MDA-MB-231 monolayer cells; assay: MTT cytotoxicity assay, monolayer; format: cell-based, human; conditions: drug added one day after seeding
Procedure: as §1

MCF-7 spheroid [7] = assay: Cell cycle analysis by flow cytometry (propidium iodide); format: cell-based, human; conditions: 25 μM, 48 hours; control 24%
Procedure: (§3) Cell cycle distribution of cells treated with 6-shogaol was analyzed by flow cytometric measurement of cellular DNA content. MCF-7 cells (5×10^5 cells/well) were subjected to 6-shogaol treatment for various time points. Culture media containing detached cells were collected and attached cells were trypsinized. Cells were pelleted, fixed in 70% (v/v) ethanol and stored at 4°C. In case of spheroids, cells were treated with different concentrations of 6-shogaol for 48 hours and fixed for further analysis. Before analysis, cells were re-washed with PBS and incubated with 10 μg/ml RNaseA and 400 μg/ml propidium iodide for 30 minutes at 37°C. Data were analyzed using FACS Diva software.

MCF-7 monolayer = assay: as above; format: cell-based, human; conditions: 16 μM (2×IC50), control 29%
Procedure: as §3

MCF-7 spheroid [8] = assay: MTT cytotoxicity assay, spheroids; format: cell-based, human; conditions: for IC50: MTT, 48 hours, drug added three days after seeding
Procedure: (§4) To check the effect of different drugs on the viability of spheroids, cells were seeded at 2.5×10^4 cells/well in 24-well ultra-low attachment plates and grown as spheroids. After 3 days, 6-shogaol (1–100 μM) or taxol (5 nM-50 μM) or curcumin (2–50 μM) was added to the wells and MTT assay was performed as explained above. Standard deviation was calculated from three independent experiments and the data were represented as the average of three experiments.

MDA MB-231 spheroid = assay: MTT cytotoxicity assay, spheroids; format: cell-based, human; conditions: for IC50: MTT, 48 hours, drug added three days after seeding
Procedure: as §4

MCF-7 cells [9] = assay: Annexin V/PI flow-cytometric apoptosis assay; format: cell-based, human; conditions: 25 μM, 48 hours
Procedure: Apoptosis was quantified by using a FITC Annexin V Apoptosis Detection kit according to manufacturer’s instructions. MCF-7 cells were treated with 15 μM and 25 μM of 6-shogaol for 24, 48 and 72 hours, respectively. Attached and floating cells were collected and analyzed by a flow cytometer (BD FACS Aria II).

In the case of `CCCCC/C=C/C(=O)CCc1ccc(O)c(OC)c1` [6-shogaol], the “percentage of CD44+CD24-/low cells (Q1)” value [1] is reported as 2.3%, the IC50 (HEK 293 cells; 48 hours) is reported as 69.97 ± 0.52 µM and the IC50 (HaCaT cells) is reported as 103.8 ± 0.67 µM. For the same compound, the “fold increase in LC3-II expression” value (LC3-II in MCF7 cells; 5 μM 6-shogaol alone, relative to control) was 1.8 fold, the “fold increase in LC3-II expression” value (LC3-II in MCF7 cells; 5 μM 6-shogaol in combination with low concentration of chloroquine) was 3.3 fold and the “fold increase in LC3-II expression” value (LC3-II in MCF7 cells; 15 μM 6-shogaol alone, relative to control) was 2.1 fold. For the same compound, the “fold increase in LC3-II expression” value (LC3-II in MCF7 cells; 15 μM 6-shogaol in combination with low concentration of chloroquine) was 3.43 fold, the secondary sphere formation (MCF-7 spheroids [2]; concentrations above 10 μM) was “Not a single secondary sphere was found” and the “inhibition of secondary spheroid colonies” value (MCF-7 spheroids [2]; primary spheroids treated with 1 μM for 1 week, control ~55 colonies) was 71%. The “inhibition of secondary spheroid colonies” value (MCF-7 spheroids [2]; primary spheroids treated with 5 μM for 1 week) was 80%, the “inhibition of secondary spheroid colonies” value (MCF-7 spheroids [2]; primary spheroids treated with 10 μM for 1 week) was 94.5% and the “apoptosis as measured by chromatin condensation” value (MCF-7 cells [3]; 48 hours) was 19%. The “apoptosis as measured by chromatin condensation” value (MCF-7 cells [3]; 72 hours) was 28%, the “toxicity to normal cells” value [4] was “not toxic” and the “apoptosis in breast cancer spheroids” value (breast cancer spheroids) was “not able to detect appreciable amount of apoptosis”. For the same compound, the “reduction of number of primary spheroid colonies” value (MCF-7 spheroids [5]; 1 μM, 7 days) was 2 fold, the “average number of spheroid colonies (primary)” value (MCF-7 spheroids [5]; 1 μM, 7 days continuous treatment, control 96) was 48 colonies and the “inhibition of primary spheroid colonies” value (MCF-7 spheroids [5]; 40 μM, 7 days) was 24 fold. For the same compound, the “number of spheroid colonies (primary)” value (MCF-7 spheroids [5]; 40 μM, 7 days continuous treatment, control 96) was 4 colonies, the IC50 (MCF-7 monolayer cells; 48 hours) was 7.94 ± 0.57 µM and the IC50 ([6]; 48 hours) was 5.67 ± 0.73 µM. For the same compound, the “percentage of cells in G2/M” value (MCF-7 spheroid [7]) was 42%, the “percentage of cells in G2/M” value (MCF-7 monolayer; 24h) was 48% and the “percentage of cells in G2/M” value (MCF-7 monolayer; 48h) was 55%. For the same compound, the “inhibition of cell viability” value (MCF-7 spheroid [8]; 10 μM, after 6 days) was 46%, the “inhibition of cell viability” value (MCF-7 spheroid [8]; 10 μM, day 4) was ~ 35% and the “inhibition of cell viability” value (MCF-7 spheroid [8]; 20 μM, day 4) was 56%. For the same compound, the “inhibition of cell viability” value (MCF-7 spheroid [8]; 40 μM, day 4) was 83%, the “effective concentration in spheroids versus monolayer cells” value (MCF-7 spheroid [8]; MCF-7 spheroids vs MCF-7 monolayer) was 5 fold and the IC50 (MCF-7 spheroid [8]) was 39.5 ± 0.62 µM. For the same compound, the “effective concentration in spheroids versus monolayer cells” value (MDA MB-231 spheroid; MDA-MB-231 spheroids vs MDA-MB-231 monolayer) was 2 fold, the IC50 (MDA MB-231 spheroid) was 11.2 ± 0.83 µM and the “potency against MDA-MB-231 spheroids versus MCF-7 spheroids” value (MDA MB-231 spheroid; more potent against MDA-MB-231 spheroids) was ~ 3 fold. The “early apoptotic cells (Annexin positive/PI negative)” value (MCF-7 cells [9]) was 11%.

With `COc1cc(/C=C/C(=O)CC(=O)/C=C/c2ccc(O)c(OC)c2)ccc1O` [Curcumin, curcumin] the IC50 (HEK 293 cells; Homo sapiens, HEK293, 48 hours) was 23.1 ± 0.68 µM, the IC50 (HaCaT cells; Homo sapiens, HaCaT) was 10.4 ± 0.87 µM and the IC50 (MCF-7 monolayer cells; Homo sapiens, MCF7, 48 hours) was 37.1 ± 0.85 µM. It also gave an IC50 (MCF-7 spheroid [8]; Homo sapiens, MCF7) of 7.27 ± 0.54 µM.

For `CC(=O)O[C@H]1C(=O)[C@@]2(C)[C@H]([C@H](OC(=O)c3ccccc3)[C@]3(O)C[C@H](OC(=O)[C@H](O)[C@@H](NC(=O)c4ccccc4)c4ccccc4)C(C)=C1C3(C)C)[C@]1(OC(C)=O)CO[C@@H]1C[C@@H]2O` [Taxol, reference compound], the IC50 (HEK 293 cells; Homo sapiens, HEK293, 48 hours) was 0.1038 ± 0.00048 µM, the IC50 (HaCaT cells; Homo sapiens, HaCaT) was 0.0427 ± 0.00075 µM and the IC50 (MCF-7 monolayer cells; Homo sapiens, MCF7, 48 hours) was 0.00492 ± 0.00071 µM. It also gave an IC50 ([6]; Homo sapiens, MDA-MB-231, 48 hours) of 0.00286 ± 0.00066 µM, an IC50 (MCF-7 spheroid [8]; Homo sapiens, MCF7) greater than 50 µM and an IC50 (MDA MB-231 spheroid; Homo sapiens, MDA-MB-231) greater than 20 µM.
